From article PMC11247487, “Discovery of Dual MER/AXL Kinase Inhibitors as Bifunctional Small Molecules for Inhibiting Tumor Growth and Enhancing Tumor Immune Microenvironment” (Journal of Medicinal Chemistry, 2024)
“And” between values parts separate entries of the source, which are not always exact repeats. Equal values may be shown once. “Also recorded” adds a separate entry of the source. Read-outs that look alike come from different tables or passages of the source. One block for each compound: values may come before it.

Assays:
[1] = test system: MDA-MB-231 human triple-negative breast xenograft tumors; experiment: MDA-MB-231 xenograft tumor model; settings: 50 mg/kg QD, FOTO
Description: (§1) All mice were used between 6 and 7 weeks of age. […] Tumor cells were detected as free of Mycoplasma spp prior to injection into animals. […] Tumor growth was measured with an electronic caliper, and volumes were calculated as L × W × W/2. Tumor size and animal body weight were measured once a week after tumor cell inoculation. Tumor growth inhibition (% TGI) = [1 – ΔT/ΔC] × 100, where ΔT is the difference of average tumor volume on the measured day and day 0 of treated groups and ΔC is the difference of average tumor volume on the measured day and day 0 of control groups.

MC38 murine colon tumor = experiment: MC38 syngeneic tumor model; assay type: in vivo, mice
Description: as §1

[2] = test system: Hepa1–6 murine liver tumors; experiment: Hepa1–6 tumor model; assay type: in vivo, mice; settings: 30 mg/kg orally QD, FOTO
Description: as §1

[3] = test system: 4T1 murine triple-negative breast tumors; experiment: 4T1 syngeneic tumor model; assay type: in vivo, mice; settings: 50 mg/kg QD, FOTO
Description: as §1

MER = biological target: T1, MER (Homo sapiens, UniProt Q12866); experiment: MER enzyme inhibition assay (in-house Kinase-Glo); assay type: biochemical
T1 construct: A purified kinase (MER or AXL) was incubated with a compound or DMSO
T1 sequence (Q12866 21-999): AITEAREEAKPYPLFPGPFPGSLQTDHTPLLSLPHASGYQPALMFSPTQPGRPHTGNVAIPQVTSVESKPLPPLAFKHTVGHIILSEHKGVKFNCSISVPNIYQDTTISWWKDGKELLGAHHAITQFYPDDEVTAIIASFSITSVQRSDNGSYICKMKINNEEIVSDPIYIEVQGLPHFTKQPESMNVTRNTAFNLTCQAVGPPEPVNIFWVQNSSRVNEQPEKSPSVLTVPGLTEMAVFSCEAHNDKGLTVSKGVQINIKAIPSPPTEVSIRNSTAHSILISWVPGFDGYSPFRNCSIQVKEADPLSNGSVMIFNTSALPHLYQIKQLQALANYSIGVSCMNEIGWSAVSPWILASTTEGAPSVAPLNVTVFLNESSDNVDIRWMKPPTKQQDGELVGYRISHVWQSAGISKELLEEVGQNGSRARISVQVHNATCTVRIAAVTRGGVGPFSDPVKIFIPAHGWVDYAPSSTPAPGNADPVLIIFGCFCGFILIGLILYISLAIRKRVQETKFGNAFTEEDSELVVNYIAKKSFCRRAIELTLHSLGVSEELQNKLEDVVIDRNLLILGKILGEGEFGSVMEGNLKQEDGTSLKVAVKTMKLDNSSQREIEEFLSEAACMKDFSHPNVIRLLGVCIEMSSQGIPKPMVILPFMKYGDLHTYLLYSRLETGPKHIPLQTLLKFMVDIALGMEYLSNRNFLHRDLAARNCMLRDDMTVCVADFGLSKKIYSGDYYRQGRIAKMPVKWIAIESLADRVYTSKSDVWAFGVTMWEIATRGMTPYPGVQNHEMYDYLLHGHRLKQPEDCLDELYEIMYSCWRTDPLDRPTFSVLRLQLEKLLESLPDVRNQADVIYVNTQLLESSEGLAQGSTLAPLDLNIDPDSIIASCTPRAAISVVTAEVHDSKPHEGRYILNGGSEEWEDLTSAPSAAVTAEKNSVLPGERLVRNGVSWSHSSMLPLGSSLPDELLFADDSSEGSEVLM

[4] = In vivo pharmacokinetics study; settings: mice; for clearance at 24 h / half-life at 24 h / Vd at 24 h / bioavailability at 24 h / Tmax at 24 h: male, ICR, mouse, plasma; for clearance at 24 h: read-out: iv CL; for Vd at 24 h: read-out: iv Vss; for iv DNAUC(0–inf) / po DNAUC(0–inf) / po DNCmax: dose-normalized
Description: The animal studies were performed according to NHRI institutional animal care and committee-approved procedures. Male ICR mice (25–35 g) were obtained from BioLASCO (Taiwan Co., Ltd., Ilan, Taiwan). […] All samples were analyzed for the parent drug by LC-MS/MS. Plasma concentration data were analyzed with a noncompartmental method.

AXL = biological target: T2, AXL (Homo sapiens, UniProt P30530); experiment: AXL enzyme inhibition assay (ADP-Glo); assay type: biochemical
T2 construct: A purified kinase (MER or AXL) was incubated with a compound or DMSO
T2 sequence (P30530 26-894): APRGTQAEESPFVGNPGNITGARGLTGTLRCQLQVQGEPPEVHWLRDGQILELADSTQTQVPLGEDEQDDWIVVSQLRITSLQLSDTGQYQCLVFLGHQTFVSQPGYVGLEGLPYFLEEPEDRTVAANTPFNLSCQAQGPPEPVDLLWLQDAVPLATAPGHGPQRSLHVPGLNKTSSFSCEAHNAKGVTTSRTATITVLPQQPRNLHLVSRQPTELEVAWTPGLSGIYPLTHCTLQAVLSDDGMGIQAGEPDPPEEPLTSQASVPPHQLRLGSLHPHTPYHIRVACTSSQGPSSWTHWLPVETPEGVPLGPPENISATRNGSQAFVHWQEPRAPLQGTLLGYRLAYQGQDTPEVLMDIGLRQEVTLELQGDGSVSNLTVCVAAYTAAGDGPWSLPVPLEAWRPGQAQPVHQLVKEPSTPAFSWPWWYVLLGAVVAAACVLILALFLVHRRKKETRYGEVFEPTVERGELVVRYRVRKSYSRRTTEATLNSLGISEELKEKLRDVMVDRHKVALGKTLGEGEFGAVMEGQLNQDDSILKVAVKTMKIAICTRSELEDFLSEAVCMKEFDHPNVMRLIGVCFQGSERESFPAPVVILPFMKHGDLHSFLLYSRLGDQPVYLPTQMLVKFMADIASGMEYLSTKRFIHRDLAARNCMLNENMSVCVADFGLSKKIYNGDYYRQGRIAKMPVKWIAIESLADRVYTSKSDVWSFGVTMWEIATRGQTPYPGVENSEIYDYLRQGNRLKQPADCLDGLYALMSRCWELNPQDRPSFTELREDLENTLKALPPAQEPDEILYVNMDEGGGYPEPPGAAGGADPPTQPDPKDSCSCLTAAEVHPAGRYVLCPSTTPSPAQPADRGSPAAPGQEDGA

[5] = In vitro microsomal stability assay; assay type: in vitro ADME; settings: 1 μM, mouse liver microsomes, percent remaining at 30 min
Description: All incubations were initiated with the addition of NADPH-generating system at 37 °C for 30 min. At 0 and the end of incubation, 100 μL of aliquots were taken from the incubation mixture and placed into centrifuge tubes containing 100 μL of ice-cold acetonitrile to terminate the metabolic reaction. The samples were vortexed and centrifuged, and then, the supernatant injected onto LC/MS. Percent of remaining of each compound was calculated by comparing peak areas at 30 min to that at the initiation of incubation.

Ba/F3-MER cells = experiment: Cell viability assay (MTS); assay type: cell-based; settings: 72 h

IC50 (MER): 9.8 nM
SMILES: COc1cc2nccc(Oc3ccc(NC(=O)c4cc5c(n(-c6ccccc6)c4=O)CCCC5=O)nc3)c2cc1OC [Compound 8, tamnorzatinib]
TGI, % of Vehicle Control [1]: 9% and 8.7 ± 4.7%
TGI, % of Vehicle Control (MC38 murine colon tumor; 50 mg/kg orally QD, FOTO): 45% and 44.8 ± 4.6%
TGI, % of Vehicle Control [2]: 17% and 16.7 ± 12.0%
TGI, % of Vehicle Control [3]: 12% and 12.2 ± 3.7%

clearance at 24 h ([4]; iv 3 mg/kg): 2.9 mL/min/kg
half-life at 24 h ([4]; iv 3 mg/kg, read-out: iv T1/2 (converted)): 6 h
Vd at 24 h ([4]; iv 3 mg/kg): 1.2 L/kg
bioavailability at 24 h ([4]; iv and po 3 mg/kg): 19.2%
Tmax at 24 h ([4]; po 3 mg/kg): 4 h
half-life at 24 h ([4]; po 3 mg/kg, read-out: po T1/2 (converted)): 3.4 h
iv DNAUC(0–inf) ([4]; iv 3 mg/kg): 3,985.3 ng × hr/mL
po DNAUC(0–inf) ([4]; po 3 mg/kg): 764.0 ng·h/mL
po DNCmax ([4]; po 3 mg/kg): 38.7 ng/mL
SMILES: Cn1cc(-c2oc3ncnc(Oc4ccc(NC(=O)c5cccn(-c6ccc(F)cc6)c5=O)cc4)c3c2-c2cccc(N)c2)cn1 [Compound 22, N-(4-{[5-(3-Aminophenyl)-6-(1-methyl-1H-pyrazol-4-yl)furo[2,3-d]pyrimidin-4-yl]oxy}phenyl)-1-(4-fluorophenyl)-2-oxo-1,2-dihydropyridine-3-carboxamide]
body weight during treatment (MC38 murine colon tumor; MC38 tumor-bearing mice, 25-50 mg/kg orally, 3 weeks): No significant body weight loss; also recorded: well-tolerated without significant body weight loss

IC50 (AXL): 11.1 nM
bioavailability at 24 h ([4]; iv 2 mg/kg, po 10 mg/kg): 14.8%
clearance at 24 h ([4]; iv 2 mg/kg): 87.1 mL/min/kg
half-life at 24 h ([4]; iv 2 mg/kg, read-out: iv T1/2 (converted)): 2.4 h
Vd at 24 h ([4]; iv 2 mg/kg): 7.4 L/kg
Tmax at 24 h ([4]; po 10 mg/kg): 2.7 h
half-life at 24 h ([4]; po 10 mg/kg, read-out: po T1/2 (converted)): 4.3 h
iv DNAUC(0–inf) ([4]; iv 2 mg/kg): 221.0 ng·h/mL
po DNAUC(0–inf) ([4]; po 10 mg/kg): 32.8 ng·h/mL
po DNCmax ([4]; po 10 mg/kg): 4.5 ng/mL
Microsomal stability @ 30 min [5]: 59%
IC50 (MER): 14.2 nM
IC50 (Ba/F3-MER cells): 7.5 nM
SMILES: CN1CCN(c2cccc(-c3c(-c4cnn(C)c4)oc4ncnc(Oc5ccc(NC(=O)c6cccn(-c7ccc(F)cc7)c6=O)cc5)c34)c2)CC1 [Compound 35, 1-(4-Fluorophenyl)-N-[4-({5-[3-(4-methylpiperazin-1-yl)phenyl]-6-(1-methyl-1H-pyrazol-4-yl)furo[2,3-d]pyrimidin-4-yl}oxy)phenyl]-2-oxo-1,2-dihydropyridine-3-carboxamide]
